Assay results published in DBAASP.
≈ marks a conversion by molar mass, not a printed value. Where “and” joins values, the source holds several entries; their conditions need not be identical. Equal entries are not always repeated.

Columns and labels:
Experiment in all cases: ≥ marks a high value that may be exact or a test limit, other limits are often not marked, values filed in µg/mL are converted to µM
[1] = tested on: Escherichia coli NCTC 10418
[2] = tested on: Staphylococcus aureus ATCC 29213
[3] = tested on: Staphylococcus epidermidis ATCC 12228
[4] = tested on: Salmonella enterica subsp. enterica serovar Typhimurium C77-31
[5] = tested on: Escherichia coli ATCC 25922
[6] = tested on: Enterococcus faecalis ATCC 29212
[7] = tested on: Salmonella enterica subsp. enterica serovar Pullorum C79-13
[8] = tested on: Staphylococcus aureus ATCC 25923
[9] = tested on: Pseudomonas aeruginosa ATCC 27853
[10] = tested on: Candida albicans ATCC 90028
Staphylococcus aureus MR = tested on: Staphylococcus aureus MR
Acinetobacter baumannii = tested on: Acinetobacter baumannii
[11] = tested on: Acinetobacter baumannii ATCC 19606
Streptococcus mutans = tested on: Streptococcus mutans
[12] = tested on: Pseudomonas aeruginosa KCTC 1637
[13] = tested on: Bacillus subtilis KCTC 3068
[14] = tested on: Staphylococcus aureus KCTC 1621
[15] = tested on: Escherichia coli KCTC 1682
[16] = tested on: Staphylococcus epidermidis KCTC 1917
[17] = tested on: Salmonella typhimurium KCTC 1926
[18] = tested on: Salmonella enterica subsp. enterica serovar Typhimurium ATCC 14028
Escherichia coli UB1005 = tested on: Escherichia coli UB1005

| MIC (Streptococcus mutans) | MIC [12] | MIC [13] | MIC [14] | MIC [15] | MIC [16] | MIC [17] | SMILES | also measured |
| --- | --- | --- | --- | --- | --- | --- | --- | --- |
|  |  |  |  |  |  |  | C[C@H](NC(=O)CN)C(=O)N1CCC[C@H]1C(=O)N[C@@H](CCCCN)C(=O)NCC(=O)N[C@H]1CSSC[C@@H](C(=O)N[C@@H](CCCCN)C(N)=O)NC(=O)[C@@H]2CCCN2C(=O)[C@H](CCCCN)NC(=O)[C@@H]2CCCN2C(=O)[C@@H]2CCCN2C(=O)[C@H](Cc2ccc(O)cc2)NC(=O)[C@H](CO)NC(=O)[C@H](CCCCN)NC(=O)[C@H]([C@@H](C)O)NC(=O)[C@H](Cc2c[nH]c3ccccc23)NC1=O [GAPKGCWTKSYPPKPCK] | MIC [1]: ≥ 160 µM |
|  |  |  |  |  |  |  | CC(C)C[C@H](NC(=O)CNC(=O)CNC(=O)CNC(=O)[C@H](Cc1c[nH]c2ccccc12)NC(=O)[C@H](CCCCN)NC(=O)[C@H](Cc1c[nH]c2ccccc12)NC(=O)[C@H](CCCCN)NC(=O)[C@H](Cc1c[nH]c2ccccc12)NC(=O)[C@H](CCCCN)NC(=O)CNC(=O)[C@H](CC(N)=O)NC(=O)[C@H](CCCCN)NC(=O)[C@H](Cc1c[nH]c2ccccc12)NC(=O)[C@H](CCCCN)NC(=O)[C@H](Cc1c[nH]c2ccccc12)NC(=O)[C@H](CCCCN)NC(=O)[C@@H](N)Cc1c[nH]c2ccccc12)C(=O)N[C@H](C(=O)N[C@H](C(=O)N[C@@H](CC(C)C)C(=O)N[C@H](C(=O)N[C@@H](Cc1ccccc1)C(=O)N[C@H](C(=O)O)C(C)C)C(C)C)[C@@H](C)O)C(C)C [WKWKWKNGKWKWKWGGGLVTLVFV] | MIC [2]: 8 µM (≈ 24.1 µg/mL); MIC [3]: 32 µM (≈ 96.6 µg/mL); MIC [4]: ≥ 128 µM; MIC [5]: 2 µM (≈ 6.04 µg/mL); MIC [6]: 16 µM (≈ 48.3 µg/mL); MIC [7]: 8 µM (≈ 24.1 µg/mL) |
|  |  |  |  |  |  |  | CC[C@H](C)[C@H](NC(=O)[C@H](CCCN=C(N)N)NC(=O)[C@H](CCC(N)=O)NC(=O)[C@@H](NC(=O)[C@@H](NC(=O)[C@H](CCCN=C(N)N)NC(=O)[C@@H](N)CCCCN)[C@@H](C)CC)C(C)C)C(=O)N[C@@H](CCCCN)C(=O)N[C@@H](CCCCN)C(=O)N[C@@H](Cc1ccccc1)C(=O)N[C@@H](CC(C)C)C(=O)N[C@@H](CCCN=C(N)N)C(=O)O [KRIVQRIKKFLR] | MIC [2]: 1.25 µM (≈ 1.98 µg/mL); MIC [8]: ≥ 202 µM; MIC [9]: 1.25 µM (≈ 1.98 µg/mL); MIC [10]: 2.5 µM (≈ 3.96 µg/mL); MIC [5]: 0.626 µM (≈ 0.992 µg/mL); MIC (Staphylococcus aureus MR): ≥ 202 µM; MIC (Acinetobacter baumannii): 12.6 µM (≈ 20 µg/mL); MIC [11]: ≥ 50.5 µM |
| 21.7 µM (≈ 32 µg/mL) |  |  |  |  |  |  | CC[C@H](C)[C@H](NC(=O)[C@H](Cc1ccccc1)NC(=O)[C@H](Cc1cnc[nH]1)NC(=O)[C@@H](NC(=O)[C@H](Cc1ccccc1)NC(=O)[C@H](CCC(N)=O)NC(=O)[C@H](CCCCN)NC(=O)[C@@H](N)CC(C)C)C(C)C)C(=O)N[C@@H](Cc1cnc[nH]1)C(=O)N[C@@H](CCCN=C(N)N)C(=O)N[C@@H](Cc1ccccc1)C(N)=O [LKQFVHFIHRF] |  |
| 4.52 µM (≈ 16 µg/mL) |  |  |  |  |  |  | CC[C@H](C)[C@H](NC(=O)CNC(=O)CNC(=O)CNC(=O)[C@H](Cc1cnc[nH]1)NC(=O)[C@H](CC(C)C)NC(=O)[C@H](CC(C)C)NC(=O)[C@H](Cc1cnc[nH]1)NC(=O)[C@H](Cc1cnc[nH]1)NC(=O)[C@H](CC(C)C)NC(=O)[C@H](CCCCN)NC(=O)[C@H](CCCCN)NC(=O)[C@H](CC(C)C)NC(=O)[C@H](CC(C)C)NC(=O)[C@H](CCCN=C(N)N)NC(=O)[C@H](CCCN=C(N)N)NC(=O)[C@H](Cc1c[nH]c2ccccc12)NC(=O)[C@@H](N)CCCN=C(N)N)C(=O)N[C@@H](CCCCN)C(=O)N[C@@H](CCC(N)=O)C(=O)N[C@@H](CC(C)C)C(=O)N[C@@H](CC(C)C)C(=O)N[C@@H](Cc1cnc[nH]1)C(=O)N[C@@H](Cc1ccccc1)C(=O)N[C@@H](Cc1ccccc1)C(=O)N[C@@H](CCC(N)=O)C(=O)N[C@@H](CCCN=C(N)N)C(=O)N[C@@H](Cc1ccccc1)C(N)=O [RWRRLLKKLHHLLHGGGIKQLLHFFQRF] |  |
| ≥ 109 µM |  |  |  |  |  |  | NCCCC[C@H](NC(=O)[C@H](CCCN=C(N)N)NC(=O)[C@H](CCCN=C(N)N)NC(=O)[C@H](Cc1c[nH]c2ccccc12)NC(=O)[C@H](Cc1c[nH]c2ccccc12)NC(=O)[C@H](CCCN=C(N)N)NC(=O)[C@@H](N)CCCN=C(N)N)C(=O)O [RRWWRRK] |  |
|  | ≥ 32 µM | 8 µM (≈ 19.7 µg/mL) | 16 µM (≈ 39.4 µg/mL) | 8 µM (≈ 19.7 µg/mL) | 8 µM (≈ 19.7 µg/mL) | 16 µM (≈ 39.4 µg/mL) | CC(C)C[C@H](NC(=O)[C@H](C)NC(=O)[C@H](Cc1c[nH]c2ccccc12)NC(=O)[C@H](CCCCN)NC(=O)[C@H](CC(N)=O)NC(=O)[C@H](Cc1c[nH]c2ccccc12)NC(=O)[C@H](CCCCN)NC(=O)[C@H](CCCCN)NC(=O)[C@H](CCCN=C(N)N)NC(=O)[C@H](Cc1ccccc1)NC(=O)[C@H](CCC(=O)O)NC(=O)[C@H](CO)NC(=O)[C@H](C)NC(=O)[C@@H](NC(=O)[C@H](CC(=O)O)NC(=O)[C@H](CC(C)C)NC(=O)[C@H](CCCN=C(N)N)NC(=O)[C@H](C)N)C(C)C)C(=O)N[C@@H](CO)C(=O)N[C@@H](CCCN=C(N)N)C(N)=O [ARLDVASEFRKKWNKWALSR] |  |
|  | 2 µM (≈ 3.39 µg/mL) | 4 µM (≈ 6.78 µg/mL) | 4 µM (≈ 6.78 µg/mL) | 2 µM (≈ 3.39 µg/mL) | 2 µM (≈ 3.39 µg/mL) | 2 µM (≈ 3.39 µg/mL) | CC[C@H](C)[C@H](NC(=O)[C@H](CCCN=C(N)N)NC(=O)[C@H](CCCCN)NC(=O)[C@H](CCCN=C(N)N)NC(=O)[C@@H](NC(=O)[C@H](CCCN=C(N)N)NC(=O)[C@@H](N)CCCCN)[C@@H](C)CC)C(=O)N[C@@H](CCCCN)C(=O)N[C@@H](CCCCN)C(=O)N[C@@H](Cc1c[nH]c2ccccc12)C(=O)N[C@@H](CCCCN)C(=O)N[C@@H](CCCN=C(N)N)C(N)=O [KRIRKRIKKWKR] |  |
|  | 17.6 µM (≈ 25 µg/mL) | 8.78 µM (≈ 12.5 µg/mL) | 8.78 µM (≈ 12.5 µg/mL) | 8.78 µM (≈ 12.5 µg/mL) | 2.2 µM (≈ 3.13 µg/mL) | 2.2 µM (≈ 3.13 µg/mL) | CC[C@H](C)[C@H](NC(=O)[C@H](CCCCN)NC(=O)[C@H](CCCCN)NC(=O)[C@H](CC(C)C)NC(=O)[C@@H](N)CCCCN)C(=O)N[C@H](C(=O)N[C@H](C(=O)N[C@H](C(=O)N[C@@H](CCCCN)C(=O)N[C@H](C(=O)N[C@@H](CCCCN)C(=O)N[C@@H](CCCCN)C(N)=O)C(C)C)[C@@H](C)CC)C(C)C)C(C)C [KLKKIVVIKVKK] |  |
| ≥ 87.3 µM |  |  |  |  |  |  | C[C@H](N)C(=O)N[C@@H](CCC(N)=O)C(=O)N[C@@H](C)C(=O)N[C@@H](C)C(=O)N[C@@H](CCCCN)C(=O)N[C@@H](CCC(N)=O)C(=O)N[C@@H](C)C(=O)N[C@@H](C)C(=O)N[C@@H](CCCCN)C(=O)N[C@@H](C)C(=O)N[C@@H](C)C(=O)N[C@@H](CCCCN)C(=O)N[C@@H](CCC(N)=O)C(=O)N[C@@H](Cc1ccccc1)C(N)=O [AQAAKQAAKAAKQF] |  |
|  | 8 µM (≈ 18.8 µg/mL) | 2 µM (≈ 4.71 µg/mL) | 8 µM (≈ 18.8 µg/mL) | 8 µM (≈ 18.8 µg/mL) | 8 µM (≈ 18.8 µg/mL) | 4 µM (≈ 9.42 µg/mL) | CC[C@H](C)[C@H](N)C(=O)NCC(=O)N[C@@H](CCCCN)C(=O)N[C@@H](CC(C)C)C(=O)N[C@@H](Cc1ccccc1)C(=O)N[C@@H](CCCCN)C(=O)N[C@@H](CCCN=C(N)N)C(=O)N[C@H](C(=O)N[C@H](C(=O)N[C@@H](CCC(N)=O)C(=O)N[C@@H](CCCN=C(N)N)C(=O)N[C@H](C(=O)N[C@@H](CC(C)C)C(=O)N[C@@H](CCCCN)C(=O)N[C@@H](Cc1ccccc1)C(=O)N[C@@H](CC(C)C)C(=O)N[C@@H](CCCN=C(N)N)C(=O)N[C@@H](CC(N)=O)C(=O)N[C@@H](CC(C)C)C(=O)O)[C@@H](C)CC)C(C)C)[C@@H](C)CC [IGKLFKRIVQRILKFLRNL] |  |
| ≥ 224 µM |  |  |  |  |  |  | NCCCC[C@H](NC(=O)[C@H](Cc1c[nH]c2ccccc12)NC(=O)[C@H](CCCN=C(N)N)NC(=O)[C@H](CCCCN)NC(=O)[C@H](CCCN=C(N)N)NC(=O)[C@H](Cc1c[nH]c2ccccc12)NC(=O)[C@@H](N)CCCN=C(N)N)C(=O)O [RWRKRWK] |  |
|  |  |  |  |  |  |  | CC(C)C[C@H](NC(=O)[C@H](Cc1ccccc1)NC(=O)[C@@H]1CCCN1C(=O)[C@H](Cc1c[nH]c2ccccc12)NC(=O)[C@@H](N)Cc1c[nH]c2ccccc12)C(=O)N[C@@H](CCCN=C(N)N)C(=O)N[C@@H](CCCN=C(N)N)C(N)=O [WWPFLRR] | MIC [2]: 64 µM and 128 µM; MIC [9]: 64 µM (≈ 67.8 µg/mL); MIC [3]: 32 µM (≈ 33.9 µg/mL); MIC [18]: 32 µM (≈ 33.9 µg/mL); MIC [4]: ≥ 64 µM; MIC [5]: 64 µM and 128 µM; MIC [6]: > 128 µM; MIC [7]: ≥ 64 µM; MIC (Escherichia coli UB1005): ≥ 128 µM |
